Experimental data published in patent US20160237158A1, “Methods and Compositions for Targeting Tumor Microenvironment and for preventing Metastasis” (INSTITUT NATIONAL DE LA SANTÉ ET DA LA RECHERCHE MÉDICALE …, priority 2013, published 2016).

Columns and labels:
[1] = tested on: mouse dermal fibroblasts; assay: TGFβ1-stimulated mouse dermal fibroblasts: STAT3 phosphorylation and collagen gel contraction; format: cell-based
Description: (§1) 2.5×10^4 Fibroblasts were embedded in 100 μl of matrix gel (the Collagen-Matrigel mixture used for organotypic invasion assays) and plated into wells of a 96 well plate^57. After 1 h at 37° C., the matrices were overlaid with 100 μl serum-free medium (with either vehicle, cytokines or inhibitors) or CM. Every 2 days, medium was changed and at day 6 the gels were photographed and the respective diameters of the well and gel were measured using ImageJ. The percentage contraction was calculated using the formula 100*(well diameter−gel diameter)/well diameter.
(§2) For immunoblotting analysis, cells were lysed on ice in lysis buffer (25 mM Tris (pH 6.8), 2% Sodium dodecyl sulfate (SDS), 5% glycerol, 1% beta-mercaptoethanol, 0.01% bromophenol blue). Equal amounts of protein from each sample were loaded on sodium dodecyl sulfate-polyacrylamide gel electrophoresis, separated, and transferred onto nitrocellulose. The immunoblots were blocked by incubation in 5% bovine serum albumin, 10 mM Tris-HCl (ph7.5), 500 mM NaCl, 0.1% Tween 20 for 30 min at room temperature, probed with specific antibodies and then with secondary antibodies using common classical methods. Immunodetection was performed using chemiluminescent HRP subtrate (#WBKLS0500, Millipore, Billerica, Mass.).

[2] = tested on: 410.4 cells; assay: Orthotopic tumours in BALB/c mice; format: in vivo, mouse; conditions: 21-day oral gavage, 30 mg/kg/day
Description: (§3) After embedding in paraffin, tissue sections from organotypic culture, skin from human breast and foreskin, and human skin carcinomas were prepared on slides using standard methods. Collagen assembly was evaluated by Sirius Red staining. Briefly, sections were first incubated with Weigert's iron hematoxylin (#C0231, Diapath, Martinengo, Italy) for 8 minutes and washed in distilled water for 10 minutes. Sections were next incubated with 1% Sirius Red in saturated picric acid for 1 hour. The slides were then washed twice with 0.5% acetic acid in distilled H2O, dehydrated and mounted using classical procedures. Sections were analysed using polarized light imaging and confocal laser microscopy with a LSM 5 EXCITER confocal microscope (Carl Zeiss, Germany). Collagen fibres thickness and length were quantified using ImageJ software.
6-8 weeks old female BALB/c mice were anesthetized using ketamine and xelazine by peritoneal injection. Skin was incised and 5.10^3 67NR or 410.4 cells (5.10^3) were injected into the right and left 4th mammary fat pad in 10 μl of PBS for each mouse. 67NR group consisted of 2 mice (4 primary tumours), 410.^4 group consisted of 7 mice (14 tumours) and 410.4 with additional treatment of Ruxolitinib (30 mg/kg/day) group consisted of 5 mice (10 tumours). Mice were sacrificed 30 days post-injection and Ruxolitinib treatment started 7 days after injection, primary tumours were removed and fixed in PBS containing 3.7% formalin for 8 hours, followed by was with PBS and transfer to 70% ethanol, and then embedded in paraffin, sectioned and stained with haematoxylin and eosin. Immunohistochemistry detection using anti-LIF, anti-p-STAT3 and anti-alpha-SMA antibodies was performed on paraffin sections following manufactures instructions.

[3] = tested on: hDF and hCAF; assay: Matrix remodelling (collagen gel contraction) assay; format: cell-based, human; conditions: collagen rich lattices
Description: as §1

[4] = tested on: hDF; assay: Collagen fibre assembly in 3D-organotypic cultures (Sirius Red); format: cell-based, human; conditions: hDF stimulated by either TGFβ1 or LIF
Description: as §3

[5] = tested on: SMAD2; assay: SMAD2 phosphorylation in fibroblasts (western blot); format: cell-based, human; conditions: TGFβ1- or LIF-stimulated fibroblasts
From the text: (§4) For western blot analysis, antibodies against STAT3 (#9134), pY705-STAT3 (#9145), SMAD2 (#3122), pSer465/467-SMAD2 (#3108), pY1022/1023-JAK1 (#3331), MLC2 (#3672), pThr18/19-MLC2 (#3674) were purchased from Cell Signaling (Cell Signaling Technology, Beverly Mass.), α-tubulin from sigma (T4026, Sigma, Saint Louis, Mo.); JAK1 from Biolegend (#604402, Biolegend, San Diego, Calif.), GP-130 (#sc-655) and RhoA (#sc-418, Santa Cruz Biotechnology, Santa Cruz, Calif.), and alpha-smooth muscle actin (α-SMA) from Abcam (#Ab5694, Abcam, Cambridge, Mass.). For immunofluorescence staining, antibodies against α-SMA and fibronectin were purchased from Sigma (#A2547 and F3648 respectively, Sigma, Saint Louis, Mo.). Chemical inhibitors used: Pyridone 6 (#42009, Calbiochem, Los Angeles, Calif.) was used at […], SB431542 (#1614, Tocris bioscience, Ellisville, Mo.) at 10 μM, Y27632 (#1254, Tocris bioscience, Ellisville, Mo.) and Actinomycin D (#856258, Sigma, Saint Louis, USA) at 5 μg/ml.
For immunoblotting analysis, cells were lysed on ice in lysis buffer (25 mM Tris (pH 6.8), 2% Sodium dodecyl sulfate (SDS), 5% glycerol, 1% beta-mercaptoethanol, 0.01% bromophenol blue). Equal amounts of protein from each sample were loaded on sodium dodecyl sulfate-polyacrylamide gel electrophoresis, separated, and transferred onto nitrocellulose. […]

[6] = tested on: STAT3; assay: STAT3 phosphorylation in fibroblasts (western blot); format: cell-based, human
From the text: as §4, §2

[7] = tested on: SCC12 cells; assay: Organotypic invasion assay; format: cell-based, human
Description: In this assay, hDF or CAFs were cultured during one week in serum-free medium (with either vehicle or cytokines) or CM before embedding in matrix gel. 5×10^5 fibroblasts were embedded in a 1 ml mixture of collagen I and Matrigel18. After the gel was set at 37° C. for 1 h, 5×10^5 SCC12 were plated on top of the gel in complete media. The next day, the gel was lifted onto individual collagen coated nylon discs resting on metal bridges and fed from underneath with daily changes of complete media (with either vehicle or inhibitors), allowing the epithelial layer to grow at an air-liquid interface.
After 5 days, cultures were fixed (4% paraformaldehyde+0.25% glutaraldehyde in PBS) and processed for haematoxylin and eosin (H&E) staining by standard methods. Invasion assay was measuring the total area of SCC cells and the area of non-invading SCC cells using imageJ software (http://rsbweb.nih.gov/ij/). The value of invasion index shown is the average 1−(non-invading area/total area) of at least ten fields from three or more independent experiments. Error bars are the standard deviation.

[8] = mice implanted with 401.4 cells

With `N#CCC(C1CCCC1)n1cc(-c2ncnc3[nH]ccc23)cn1` (centres unmarked) [Ruxolitinib, 3-Cyclopentyl-3-[4-(7H-pyrrolo[2,3-d]pyrimidin-4-yl)-1H-pyrazol-1-yl]propanenitrile] the STAT3 phosphorylation [1] was “complete abrogation”, the matrix remodelling [1] was “complete abrogation” and the “STAT3 phosphorylation within the tumour microenvironment in vivo” value [2, 8] was “inhibited”. The αSMA staining [2, 8] was “without influencing”, the “rates of invasion of the tumour cells” value ([2]; mice implanted with 401.4 cells, FIG. 4B) was “significant reduced” and the “Sirius Red staining and formation of collagen bundles” value ([2]; mice implanted with 401.4 cells, FIG. 4C) was “reduced”. For the same compound, the LIF production ([2]; mice implanted with 410.4 cells) was “without influencing”, the “TGFβ1 and LIF-dependent activation of hDF contractility” value [3] was “completely inhibited” and the “capacity to assembly polarized collagen fibres” value [4] was “inhibited”. For the same compound, the “effect on SMAD2” value [5] was “no effect”, the STAT3 phosphorylation ([6]; TGFβ1- or LIF-stimulated fibroblasts) was “repressing” and the “CAF endogenous STAT3 activity” value ([6]; hCAF) was “inhibition”. For the same compound, the “track formation and SCC12 cell invasion promoted by hCAF” value ([7]; hCAF) was “prevented” and the “pro-invasive hDF activation induced upon TGFβ1 and LIF stimulation” value ([7]; hDF, TGFβ1 and LIF stimulation) was “abrogated”.
